According to patent publication EP4755881A1 (Wuhan Createrna Science and Technology Co., Ltd., priority 2023, dated 2025):
Like-named read-outs stand apart in the source and are kept apart here.

Assays:
[1] = target: hLPAR1 (human lysophosphatidic acid receptor 1, Accession No.: NM_001401.4) (Homo sapiens, UniProt Q92633); test: cell-based; conditions: FLIPR method, CHO-K1 cells overexpressing hLPAR1
Outline: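 Antagonist mode in CHO-K1 cells stably expressing hLPAR1, Fluo-4 loaded; compound preincubated 30 min at room temperature before 1 µM oleoyl-LPA (final) challenge.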

[2] = target: T1, LPAR1 receptor (Homo sapiens, UniProt Q92633); test: LPAR1 in vitro biological activity evaluation 2: HTRF cAMP kit (LANCE Ultra cAMP Kit) assay in CHO stable transfected cell line expressing the LPAR1 receptor; format: cell-based
T1 construct: expressed in transfected cells
T1 sequence (Q92633 whole entry): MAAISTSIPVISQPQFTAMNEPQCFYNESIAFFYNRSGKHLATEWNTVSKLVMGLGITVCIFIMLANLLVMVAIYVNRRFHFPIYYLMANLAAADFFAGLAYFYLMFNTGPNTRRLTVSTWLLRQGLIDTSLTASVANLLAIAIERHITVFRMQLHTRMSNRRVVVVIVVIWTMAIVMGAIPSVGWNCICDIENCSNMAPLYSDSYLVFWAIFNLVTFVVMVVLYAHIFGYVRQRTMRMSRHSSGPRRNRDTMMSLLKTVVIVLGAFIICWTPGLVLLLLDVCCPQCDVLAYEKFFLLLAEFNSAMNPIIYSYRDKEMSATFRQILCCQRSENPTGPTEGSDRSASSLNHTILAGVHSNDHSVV
Method: The inhibitory effects of the compounds of the present disclosure on the LPAR1 receptor were determined using a Chinese hamster ovary (CHO) stable transfected cell line expressing the LPAR1 receptor, through the HTRF cAMP kit (LANCE® Ultra cAMP Kit).
The CHO cell line expressing the LPAR1 receptor was cultured in F-12 medium (Gibco, 117650054) containing 10% fetal bovine serum (FBS, Avantor, 76294-180) and 0.2 mg/mL hygromycin B (Solarbio, H8080-1g) at 37°C with 5% CO2. Cell passage, recovery, and cryopreservation were performed according to conventional methods. The stable transfected cell line was cultured to 80% confluence, digested with trypsin to collect cells, counted, and then seeded at 5 µL/well in a 384-well plate (500 cells/5 µL). The 1× Stimulation Buffer was prepared according to the instructions of the kit (LANCE® Ultra cAMP Kit). 1 µL of the test compound solution (diluted to 10× with 1× Stimulation Buffer) was added to the corresponding experimental wells, followed by centrifugation and incubation at 37°C for 10 minutes. […] 5 µL/well of Eu-cAMP (diluted with Detection buffer) was added to the corresponding experimental wells. 5 µL/well of ULight™-anti-cAMP antibody (diluted with Detection buffer) was added to the corresponding experimental wells, followed by centrifugation and incubation at room temperature for 1 hour. After the incubation was completed, the readings at 665 nm and 620 nm under 330 nm excitation were detected using the HTS high-throughput drug screening multifunctional microplate reader (BMG, PHERAstar FSX). The IC50 values were calculated by fitting nonlinear regression (dose response - variable slope) using GraphPad Prism software.

[3] = Pharmacokinetic study in rats (oral gavage and tail vein injection, plasma LC-MS/MS); format: in vivo; conditions: rat; for Cmax: read-out: Cmax
Outline: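 Plasma from SD rats is taken at 0.167–24 h after oral gavage or at 0.033–24 h after intravenous tail-vein dosing and assayed by LC-MS/MS. Oral animals are fasted overnight and dosed in DMSO/ethanol/PEG400/saline; IV animals receive ethanol/water/PEG400. PK parameters come from a non-compartmental model.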

[4] = Table 1, read-out: LPAR1 inhibitory activity IC50
[5] = Table 2, read-out: LPAR1 inhibitory activity IC50
[6] = LPAR1 inhibitory activity IC50, Table 1

hLPAR1 (human lysophosphatidic acid receptor 1, Accession No.: NM_001401.4), sequence (Q92633 whole entry): as above

SMILES	IC50 [2, 5]	AUC(0-t) ([3]; SD rats, Iv, 1 mg/kg)	half-life ([3]; SD rats, Iv, 1 mg/kg)	Cmax ([3]; SD rats, Iv, 1 mg/kg)	AUC(0-t) ([3]; SD rats, Po, 1 mg/kg)	half-life ([3]; SD rats, Po, 1 mg/kg)	Cmax ([3]; SD rats, Po, 1 mg/kg)	half-life ([3]; male, SD, iv, 1 mg/kg)	half-life ([3]; male, SD, po, 1 mg/kg)	AUC(0-t) ([3]; male, SD rats, Iv, 1 mg/kg)	Cmax ([3]; male, SD rats, Iv, 1 mg/kg)	AUC(0-t) ([3]; male, SD rats, Po, 1 mg/kg)	Cmax ([3]; male, SD rats, Po, 1 mg/kg)	further results
CCC[C@@H](C)OC(=O)Nc1c(-c2ccc(C#C[C@@H]3C[C@H]3C(=O)O)c(C)n2)nnn1C (mixture of isomers) [224-B, trans-2-((2-methyl-6-(1-methyl-5-(((((R)-pentan-2-yl)oxy)carbonyl)amino)-1H-1,2,3-triazol-4-yl)pyridin-3-yl)ethynyl)cyclopropane-1-carboxylic acid]	127 nM													IC50 [1, 4]: 70 nM
CCCC(C)OC(=O)Nc1c(-c2ccc(C#CC3CCCC3C(=O)O)c(C)n2)nnn1C (single isomer, unassigned) [305-B]	81.5 nM	3000 to 5000 ng·h/mL	3.52 h	800 to 5000 ng/mL	5000 to 10000 ng·h/mL	3.49 h	800 to 5000 ng/mL							
CCCN(C)C(=O)OCc1c(-c2ccc(O[C@H]3CCC[C@H](C(=O)O)C3)c(C)n2)nnn1C [Control compound 1, reference compound]	407 nM							3.26 h	2.37 h	811 ng·h/mL	1570 ng/mL	626 ng·h/mL	154 ng/mL	half-life ([3]; male, SD, po, 3 mg/kg): 2.59 h; AUC(0-t) ([3]; male, SD rats, Po, 3 mg/kg): 1540 ng·h/mL; Cmax ([3]; male, SD rats, Po, 3 mg/kg): 985 ng/mL
CCc1nc(-c2nnn(C)c2NC(=O)O[C@H](C)CC(C)(F)F)ccc1C#CC1(CC(=O)O)CC1 [compound 232]	75.4 nM	5000 to 10000 ng·h/mL	14.5 h	800 to 5000 ng/mL	3000 to 5000 ng·h/mL	14 h	200 to 800 ng/mL							
Cc1nc(-c2onc(C)c2NC(=O)O[C@H](C)CC(C)(F)F)ccc1C#CC1(CC(=O)O)CC1 [compound 276]	96.4 nM	3000 to 5000 ng·h/mL	3.69 h	800 to 5000 ng/mL										
CCC[C@@H](C)OC(=O)Nc1c(-c2ccc(C#CC3(CC(=O)O)CC(OC)C3)c(C)n2)nnn1C (stereo partly drawn) [compound 278]	34.4 nM							5.24 h	4.5 h	5000 to 10000 ng·h/mL	5000 to 8000 ng/mL	5000 to 10000 ng·h/mL	200 to 800 ng/mL	IC50 [1, 4]: 38.1 nM
Cc1nc(-c2nnn(C)c2NC(=O)O[C@H](C)CC(C)C)ccc1C#C[C@@H]1CC[C@H]1C(=O)O [compound 308]	93.2 nM													IC50 [1, 6]: 10.9 nM
Cc1nc(-c2nnn(C)c2NC(=O)O[C@H](C)c2ccccc2)ccc1C#C[C@@H]1CC[C@H]1C(=O)O [compound 309]	83.2 nM							4.36 h	4.08 h	3000 to 5000 ng·h/mL	800 to 5000 ng/mL	5000 to 10000 ng·h/mL	800 to 5000 ng/mL	
CCCC[C@@H](C)OC(=O)Nc1c(-c2ccc(C#CC3(CC(=O)O)CC3)c(C)n2)nnn1C [compound 313]	156 nM	3000 to 5000 ng·h/mL	5.12 h	800 to 5000 ng/mL										IC50 [1, 6]: 16.1 nM; AUC(0-t) ([3]; SD rats, Po, 3 mg/kg): 10000 to 20000 ng·h/mL; half-life ([3]; SD rats, Po, 3 mg/kg): 5.59 h; Cmax ([3]; SD rats, Po, 3 mg/kg): 800 to 5000 ng/mL
CCOC1CC(C#Cc2ccc(-c3nnn(C)c3NC(=O)O[C@H](C)C(F)(F)CC)nc2C)(CC(=O)O)C1 (stereo partly drawn) [compound 429]	33.4 nM							6.87 h	5.7 h	3000 to 5000 ng·h/mL	5000 to 8000 ng/mL	3000 to 5000 ng·h/mL	200 to 800 ng/mL	
CCC(F)(F)[C@@H](C)OC(=O)Nc1c(-c2ccc(C#CC3(CC(=O)O)CC3)c(C)n2)noc1C [compound 444]	48.4 nM	1200 to 3000 ng·h/mL	2.91 h	800 to 5000 ng/mL	3000 to 5000 ng·h/mL	3.61 h	200 to 800 ng/mL							
CCc1nc(-c2nnn(C)c2NC(=O)O[C@H](C)C(F)(F)CC)ccc1C#CC1(CC(=O)O)CC(OC)C1 (stereo partly drawn) [compound 462]	48.7 nM							6.41 h	5.41 h	5000 to 10000 ng·h/mL	8000 to 12000 ng/mL	10000 to 20000 ng·h/mL	800 to 5000 ng/mL	
CCC(F)(F)[C@@H](C)OC(=O)Nc1c(-c2ccc(C#CC3(CC(=O)O)CC(OC)C3)c(C(F)(F)F)n2)nnn1C (stereo partly drawn) [compound 463]	38.2 nM	3000 to 5000 ng·h/mL	5.44 h	5000 to 8000 ng/mL	5000 to 10000 ng·h/mL	5.47 h	800 to 5000 ng/mL							
CCC(F)(F)[C@@H](C)OC(=O)Nc1c(-c2ccc(C#CC3(CC(=O)O)CC(OC)C3)c(C)n2)noc1C (stereo partly drawn) [compound 468]		3000 to 5000 ng·h/mL	2.35 h	800 to 5000 ng/mL	5000 to 10000 ng·h/mL	2.77 h	200 to 800 ng/mL							IC50 ([2]; LPAR1 inhibitory activity IC50, Table 2): 31.6 nM
CCc1nc(-c2noc(C)c2NC(=O)O[C@H](C)C(F)(F)CC)ccc1C#CC1(CC(=O)O)CC(OC)C1 (stereo partly drawn) [compound 492]	8.6 nM	5000 to 10000 ng·h/mL	3.92 h	800 to 5000 ng/mL	5000 to 10000 ng·h/mL	3.75 h	800 to 5000 ng/mL							
CCc1nc(-c2nnn(C)c2NC(=O)O[C@H](C)C(F)(F)CC)ccc1C#CC1(CC(=O)O)CC2(CC2)C1 [compound 504]	6.4 nM													
CCC(F)(F)[C@@H](C)OC(=O)Nc1c(C)noc1-c1ccc(C#CC2(CC(=O)O)CC(OC)C2)c(C(F)(F)F)n1 (stereo partly drawn) [compound 506]	20.1 nM							2.51 h	2.41 h	10000 to 20000 ng·h/mL	8000 to 12000 ng/mL	10000 to 20000 ng·h/mL	800 to 5000 ng/mL	
CCC[C@@H](C)OC(=O)Nc1c(-c2ccc(C#CC3(CS(=O)(=O)O)CC4(CC4)C3)c(C)n2)nnn1C [compound 508, (R)-(5-((2-methyl-6-(1-methyl-5-(((pentan-2-yloxy)carbonyl)amino)-1H-1,2,3-triazol-4-yl)pyridin-3-yl)ethynyl)spiro[2.3]hexan-5-yl)methanesulfonic acid]	4 nM													
CCC[C@@H](C)OC(=O)Nc1c(-c2ccc(C#CC3(P(=O)(O)O)CC4(CC4)C3)c(C)n2)nnn1C [compound 510]	32.1 nM													
CCC(F)(F)[C@@H](C)OC(=O)Nc1c(-c2ccc(C#Cc3cc(C(F)(F)F)ncc3C(=O)O)c(C)n2)nnn1C [compound 513]	26.5 nM													
